Assay results from ChEMBL document CHEMBL1125090, “Expedient synthesis and biochemical properties of an [125I]-labeled analogue of glyburide, a radioligand for ATP-inhibited potassium channels” (J Med Chem, 1990).

Experiment: Inhibition of [125I]-I binding to ATP-inhibited Potassium channel receptor of Rat brain homogenate

Row | Ki [nM] | Compound
1 | 0.608 | COc1ccc(Cl)cc1C(=O)NCCc1ccc(S(=O)(=O)NC(=O)NC2CCCCC2)cc1 [GLYBURIDE]
2 | 8.2 | Cc1cnc(C(=O)NCCc2ccc(S(=O)(=O)NC(=O)NC3CCCCC3)cc2)cn1 [GLIPIZIDE]
3 | 2.6 | COc1ccc(I)cc1C(=O)NCCc1ccc(S(=O)(=O)NC(=O)NC2CCCCC2)cc1
